From patent US5405859A (priority 1993, dated 1995)
Values after ≈ are worked out from the molar mass of the structure shown. Like-named read-outs stand apart in the source and are kept apart here.

Tests used:
OVCAR-4 cells = assay: Cancer cell screen (NCI protocol), OVCAR-4; settings: Homo sapiens, OVCAR-4, read-out: LOGIC50(W)
SNB-19 cells = assay: Cancer cell screen (NCI protocol), SNB-19; settings: Homo sapiens, SNB-19, read-out: LOGIC50(W)
A498 cells = assay: Cancer cell screen (NCI protocol), A498; settings: Homo sapiens, A498, read-out: LOGIC50(W)
OVCAR-8 cells = assay: Cancer cell screen (NCI protocol), OVCAR-8; settings: Homo sapiens, OVCAR-8, read-out: LOGIC50(W)
UO-31 cells = assay: Cancer cell screen (NCI protocol), UO-31; settings: Homo sapiens, UO-31, read-out: LOGIC50(W)
SK-MEL5 cells = assay: Cancer cell screen (NCI protocol), SK-MEL5; settings: Homo sapiens, SK-MEL-5, read-out: LOGIC50(W)
H460 cells = assay: Cancer cell screen (NCI protocol), H460; settings: Homo sapiens, NCI-H460, read-out: LOGIC50(W)
LOVO cells = assay: Cancer cell screen (NCI protocol), LOVO; settings: Homo sapiens, read-out: LOGIC50(W)
TE-671 cells = assay: Cancer cell screen (NCI protocol), TE-671; settings: Homo sapiens, TE-671, read-out: LOGIC50(W)
[1] = test system: standard group of cancer cells; assay: Screen against standard group of cancer cells, whole panel; settings: for .DELTA / .RANGE: log IC50, cell panel; for IC50: read-out: .AV.LOG IC50; for relative activity: review of Tables IV-VI
HL-60 cells = assay: Cancer cell screen (NCI protocol), HL-60; settings: Homo sapiens, HL-60, read-out: LOGIC50(W)
A2780 cells = assay: Cancer cell screen (NCI protocol), A2780; settings: Homo sapiens, A2780, read-out: LOGIC50(W)
U-251 cells = assay: Cancer cell screen (NCI protocol), U-251; settings: Homo sapiens, U-251, read-out: LOGIC50(W)
SN-12KI cells = assay: Cancer cell screen (NCI protocol), SN-12KI; settings: read-out: LOGIC50(W)
H322 cells = assay: Cancer cell screen (NCI protocol), H322; settings: NCI-H322, read-out: LOGIC50(W)
A704 cells = assay: Cancer cell screen (NCI protocol), A704; settings: Homo sapiens, A704, read-out: LOGIC50(W)
SW620 cells = assay: Cancer cell screen (NCI protocol), SW620; settings: Homo sapiens, SW-620, read-out: LOGIC50(W)
OVCAR-5 cells = assay: Cancer cell screen (NCI protocol), OVCAR-5; settings: Homo sapiens, OVCAR-5, read-out: LOGIC50(W)
[2] = Initial screening, relative activities of the patellazoles
P388 cells = assay: Cancer cell screen (NCI protocol), P388; settings: Mus musculus, P388, read-out: LOGIC50(W)
MCF-7 cells = assay: Cancer cell screen (NCI protocol), MCF-7; settings: Homo sapiens, MCF7, read-out: LOGIC50(W)
SK-MES1 cells = assay: Cancer cell screen (NCI protocol), SK-MES1; settings: Homo sapiens, SK-MES-1, read-out: LOGIC50(W)
MOLT-4 cells = assay: Cancer cell screen (NCI protocol), MOLT-4; settings: Homo sapiens, MOLT-4, read-out: LOGIC50(W)
SNB-75 cells = assay: Cancer cell screen (NCI protocol), SNB-75; settings: Homo sapiens, SNB-75, read-out: LOGIC50(W)
P388/AD cells = assay: Cancer cell screen (NCI protocol), P388/AD; settings: Mus musculus, P388, read-out: LOGIC50(W)
EKV-X cells = assay: Cancer cell screen (NCI protocol), EKV-X; settings: Homo sapiens, EKVX, read-out: LOGIC50(W)
H520 cells = assay: Cancer cell screen (NCI protocol), H520; settings: Homo sapiens, NCI-H520, read-out: LOGIC50(W)
HT29 cells = assay: Cancer cell screen (NCI protocol), HT29; settings: Homo sapiens, HT-29, read-out: LOGIC50(W)
MCF-7/A cells = assay: Cancer cell screen (NCI protocol), MCF-7/A; settings: MCF7a, read-out: LOGIC50(W)
SNB-44 cells = assay: Cancer cell screen (NCI protocol), SNB-44; settings: SNB44, read-out: LOGIC50(W)
LOX cells = assay: Cancer cell screen (NCI protocol), LOX; settings: read-out: LOGIC50(W)
HSV-2 = assay: Antiviral testing, HSV-2; format: cell-based, herpes virus HSV-2; settings: for HSV-2 (antiviral concentration): Vero host cells, kind of endpoint not given; for activity against herpes virus HSV-2: at concentrations not toxic for host cells (Vero)
Excerpt: (§1) Substantially pure compounds of Patellazole B and C were screened for activity. These extracts from a marine tunicate (L. patella) were submitted for antiviral testing.

VERO = assay: Cytotoxicity in Vero host cells; format: cell-based; settings: for Cytotoxicity Vero: Vero cells, kind of endpoint not given; for toxicity for the host cells: Vero, at concentrations active against HSV-1 and HSV-2
Excerpt: as §1

HSV-1 = assay: Antiviral testing, HSV-1; format: cell-based, herpes virus HSV-1; settings: for HSV-L (antiviral concentration): Vero host cells, kind of endpoint not given; for activity against herpes virus HSV-1: at concentrations not toxic for host cells (Vero)
Excerpt: as §1

A549 cells = assay: Cancer cell screen (NCI protocol), A549; settings: Homo sapiens, A549, read-out: LOGIC50(W)
A322 cells = assay: Cancer cell screen (NCI protocol), A322; settings: read-out: LOGIC50(W)
[3] = Patellazole B versus Patellazole C

| Structure (SMILES) | IC50 (OVCAR-4 cells) | IC50 (SNB-19 cells) | IC50 (A498 cells) | IC50 (SK-MEL5 cells) | IC50 (H460 cells) | IC50 (LOVO cells) | IC50 (TE-671 cells) | .DELTA [1] | .RANGE [1] | IC50 [1] | IC50 (A2780 cells) | IC50 (U-251 cells) | IC50 (SN-12KI cells) | IC50 (A704 cells) | IC50 (OVCAR-5 cells) | relative activities of the patellazoles [2] | IC50 (P388 cells) | IC50 (SK-MES1 cells) | IC50 (MOLT-4 cells) | IC50 (SNB-75 cells) | further results |
| --- | --- | --- | --- | --- | --- | --- | --- | --- | --- | --- | --- | --- | --- | --- | --- | --- | --- | --- | --- | --- | --- |
| CCC(C)C(=O)OC1(C)CCC(C)CC(O)C(C)C(=O)C(C)/C=C\CC(C)C(O)C(O)C(OC)/C(C)=C/C=C/C(C)C(C(C)(O)/C=C(/C)Cc2csc(C3(C)OC3C)n2)OC1=O (centres unmarked) [Patellazole A] | 0.1 ng/mL (≈ 0.113 nM) | 0.0794 ng/mL (≈ 0.0894 nM) | 0.0631 ng/mL (≈ 0.071 nM) | 0.158 ng/mL (≈ 0.178 nM) | 0.0398 ng/mL (≈ 0.0448 nM) | 0.0794 ng/mL (≈ 0.0894 nM) | < 0.0316 ng/mL | 0.5 | 2.3 | 0.0977 ng/mL (≈ 0.11 nM) | 0.0398 ng/mL (≈ 0.0448 nM) | < 0.0316 ng/mL | < 0.0316 ng/mL | 0.1 ng/mL (≈ 0.113 nM) | 0.0501 ng/mL (≈ 0.0564 nM) | A>B>C | 0.1 ng/mL (≈ 0.113 nM) | < 0.0316 ng/mL | 0.0794 ng/mL (≈ 0.0894 nM) | 6.31 ng/mL (≈ 7.1 nM) | IC50 (OVCAR-8 cells): 0.1 ng/mL (≈ 0.113 nM); IC50 (UO-31 cells): 0.126 ng/mL (≈ 0.142 nM); relative activity [1]: slightly more active than Patellazole B; IC50 (HL-60 cells): 0.126 ng/mL (≈ 0.142 nM); IC50 (H322 cells): 0.126 ng/mL (≈ 0.142 nM); IC50 (SW620 cells): 0.1 ng/mL (≈ 0.113 nM); IC50 (MCF-7 cells): 0.126 ng/mL (≈ 0.142 nM); IC50 (P388/AD cells): 0.126 ng/mL (≈ 0.142 nM); IC50 (EKV-X cells): 0.0794 ng/mL (≈ 0.0894 nM); IC50 (H520 cells): 0.794 ng/mL (≈ 0.894 nM); IC50 (HT29 cells): < 0.0316 ng/mL; IC50 (MCF-7/A cells): 0.501 ng/mL (≈ 0.564 nM) |
| COC1/C(C)=C/C=C/C(C)C(C(C)(O)/C=C(/C)Cc2csc(C3(C)OC3C)n2)OC(=O)C(C)(OC(=O)C(C)C(C)O)CCC(C)CC(O)C(C)C(=O)C(C)/C=C\CC(C)C(O)C1O (centres unmarked) [Patellazole B] | < 0.0316 ng/mL | < 0.0316 ng/mL | < 0.0316 ng/mL | < 0.0316 ng/mL | < 0.0316 ng/mL | < 0.0316 ng/mL | < 0.0316 ng/mL | 0 | 0 | 0.0316 ng/mL (≈ 0.035 nM) | < 0.0316 ng/mL | < 0.0316 ng/mL | < 0.0316 ng/mL | < 0.0316 ng/mL | < 0.0316 ng/mL | A>B>C | < 0.0316 ng/mL | < 0.0316 ng/mL | < 0.0316 ng/mL | < 0.0316 ng/mL | IC50 (SNB-44 cells): < 0.0316 ng/mL; IC50 (UO-31 cells): < 0.0316 ng/mL; IC50 (LOX cells): < 0.0316 ng/mL; relative activity [1]: significantly more active than Patellazole C; IC50 (H322 cells): < 0.0316 ng/mL; relative antiviral activity against HSV-2 (HSV-2; [3]): significantly more potent; HSV-2 (antiviral concentration) (HSV-2): 0.06 µg/mL; activity against herpes virus HSV-2 (HSV-2): showed activity; IC50 (SW620 cells): < 0.0316 ng/mL; IC50 (MCF-7 cells): < 0.0316 ng/mL; Cytotoxicity Vero (VERO): 0.75 µg/mL; toxicity for the host cells (VERO): not toxic; IC50 (P388/AD cells): < 0.0316 ng/mL; relative antiviral activity against HSV-1 (HSV-1; [3]): significantly more potent; HSV-L (antiviral concentration) (HSV-1): 0.0005 µg/mL; activity against herpes virus HSV-1 (HSV-1): showed activity; IC50 (EKV-X cells): < 0.0316 ng/mL; IC50 (HT29 cells): < 0.0316 ng/mL; IC50 (MCF-7/A cells): < 0.0316 ng/mL; IC50 (A549 cells): < 0.0316 ng/mL |
| COC1/C(C)=C/C=C/C(C)C(C(C)(O)/C=C(/C)Cc2csc(C3(C)OC3C)n2)OC(=O)C(C)(OC(=O)C(C)C(C)O)CCC(C)CC(O)C(C)C(=O)C(CO)/C=C\CC(C)C(O)C1O (centres unmarked) [Patellazole C] | 7.94 ng/mL (≈ 8.63 nM) | 10 ng/mL (≈ 10.9 nM) | 10 ng/mL (≈ 10.9 nM) | 12.6 ng/mL (≈ 13.7 nM) | 7.94 ng/mL (≈ 8.63 nM) | 6.31 ng/mL (≈ 6.86 nM) | 7.94 ng/mL (≈ 8.63 nM) | 1.1 | 2.5 | 10.2 ng/mL (≈ 11.1 nM) | 5.01 ng/mL (≈ 5.45 nM) | 7.94 ng/mL (≈ 8.63 nM) | 10 ng/mL (≈ 10.9 nM) | 79.4 ng/mL (≈ 86.3 nM) | 2.51 ng/mL (≈ 2.73 nM) | generally less active | 12.6 ng/mL (≈ 13.7 nM) | 7.94 ng/mL (≈ 8.63 nM) | 7.94 ng/mL (≈ 8.63 nM) | > 31.6 ng/mL | IC50 (OVCAR-8 cells): 10 ng/mL (≈ 10.9 nM); HSV-2 (antiviral concentration) (HSV-2): 0.80 µg/mL; activity against herpes virus HSV-2 (HSV-2): showed activity; relative activities of the patellazoles ([2]; listed as C): A>B>C; Cytotoxicity Vero (VERO): 4.0 µg/mL; toxicity for the host cells (VERO): not toxic; HSV-L (antiviral concentration) (HSV-1): 0.30 µg/mL; activity against herpes virus HSV-1 (HSV-1): showed activity; IC50 (A322 cells): 7.94 ng/mL (≈ 8.63 nM); IC50 (EKV-X cells): 10 ng/mL (≈ 10.9 nM); IC50 (HT29 cells): 1 ng/mL (≈ 1.09 nM); IC50 (MCF-7/A cells): > 316 ng/mL |
